The text below walks through data of patent US5491152A, “Derivatives of cyclic ethers and sulfides for the treatment of atherosclerosis” (The Du Pont Merck Pharmaceutical Company, priority 1994, dated 1996).

pIC50: −log10 of the molar value.

For assay [1], the target named is T1, Acyl-CoA: Cholesterol Acyltransferase (ACAT) (Rattus norvegicus, UniProt Q7TQM4).
T1 construct: Microsomes were obtained by differential centrifugation; from tissue; host or cells: liver microsomes of male Sprague Dawley rats
T1 sequence (Q7TQM4 1-524): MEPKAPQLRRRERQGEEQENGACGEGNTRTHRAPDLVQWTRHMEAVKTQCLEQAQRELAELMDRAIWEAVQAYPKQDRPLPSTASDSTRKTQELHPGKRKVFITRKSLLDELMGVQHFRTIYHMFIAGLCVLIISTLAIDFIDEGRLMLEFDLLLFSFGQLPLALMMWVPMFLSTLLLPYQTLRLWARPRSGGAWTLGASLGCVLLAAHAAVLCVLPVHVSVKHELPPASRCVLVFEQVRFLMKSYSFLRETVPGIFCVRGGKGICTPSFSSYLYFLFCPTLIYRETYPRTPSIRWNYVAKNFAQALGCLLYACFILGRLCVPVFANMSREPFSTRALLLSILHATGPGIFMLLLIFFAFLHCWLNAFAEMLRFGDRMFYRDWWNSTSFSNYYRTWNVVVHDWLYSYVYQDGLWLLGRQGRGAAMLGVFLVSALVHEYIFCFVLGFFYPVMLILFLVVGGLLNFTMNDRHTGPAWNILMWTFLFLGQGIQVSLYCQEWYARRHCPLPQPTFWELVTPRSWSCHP
Briefly: Inhibition of Acyl-CoA: Cholesterol Acyltransferase (ACAT) in hepatic microsomes (In Vitro Assay). It is filed as biochemical, rat (male Sprague Dawley). Conditions: 75 μM 14C-oleoyl-CoA, pH 7.4, 37° C., 15 min preincubation, 10 min. The procedure:
A. Assay of the Inhibition of Acyl-CoA: Cholesterol Acyltransferase (ACAT) in Hepatic Microsomes (In Vitro Assay)
The ability of the compounds to inhibit ACAT, the enzyme responsible for the intracellular synthesis of cholesteryl esters, was tested as follows. Male Sprague Dawley rats weighing 150-300 g, were fed rat chow ad libitum. The animals were fasted for twenty-four hours prior to being euthanized by CO2. The livers were perfused in situ with 50 ml of cold 0.25 sucrose, excised, and homogenized in three volumes of 0.1M phosphate buffer, pH 7.4, that contained 0.5 mM EDTA (ethylenediamine-tetraacetic acid), 1.0 mM glutathione, 0.25M sucrose and 20 mM leupeptin. Microsomes were obtained by differential centrifugation; the supernatant from an initial spin at 15,000× g for 15 minutes was centrifuged at 105,000× g for 1 hour to pellet the microsomes. The microsomes were suspended in 0.1M phosphate buffer, pH 7.4 with 1 mM GSH and stored at -70° C. Microsomes were used within one month of preparation.
The control assay in a final volume of 200 μl consisted of 200 μg of microsomal protein, 75 μM ^14 C-oleoyl-CoA (10,000 dpm/nmol) in 0.1M phosphate, pH 7.4, that contained 1 mM glutathione. Compounds were added in 5 μl of DMSO (dimethyl sulfoxide) and additional controls were run with DMSO only. All components, except the oleoyl-CoA, were preincubated for 15 min. at 37° C. prior to the initiation of the reaction by the addition of oleoyl-CoA. The assay was terminated after 10 min by the addition of 4 ml of chloroform:methanol (2:1, v/v). 20,000 dpm of ^3 H-cholesteryl oleate and 10 μg of unlabeled cholesteryl oleate and oleic acid were added as an internal standard and carriers, respectively. After allowing 10 min. for lipid extraction, the samples were centrifuged at 1,000× g for 10 min to separate the solvent layers. The chloroform layer containing the neutral lipids was spotted onto a Baker SI250-Pa silica gel TLC plate and the plate developed using a hexane:diethyl ether:acetic acid (170:30:1) v/v/v) mobile phase. The lipids were visualized by their interaction with iodine vapor and the cholesteryl ester spot was scraped into a scintillation vial and counted. The specific activity of ACAT in the control incubation averaged 260 pmol/min/mg microsomal protein. The data obtained are expressed as the concentration at which ACAT activity is inhibited by 50% (IC50).

Assay [2] has as its system ACAT. Briefly: Systemic availability of ACAT inhibitors (Ex Vivo Assay): ACAT activity in livers from orally dosed rats. The arrangement: species or system rat (male (CD) Sprague Dawley). Conditions: rat, oral gavage 10 mg/kg, days 1-3, livers taken 3 h after last dose; given as number. The procedure: B. Assay for the Systemic Availability of ACAT Inhibitors (Ex Vivo Assay)
The inhibition of ACAT activity in livers obtained from rats orally dosed with an inhibitor was used as a determination of the compound's systemic availability. The ability of ACAT inhibitors to affect cholesterol esterification in livers obtained from dosed animals was tested as follows. This assay is also referred to herein as the Ex Vivo Assay. Male (CD) Sprague Dawley rats weighing from 190-210 g were fed purina lab chow ad libitum. Rats, three per group, were orally gavaged with 10 mg/kg of active ACAT inhibitor. The compounds were dissolved in ethanol (10% of final volume); a PEG solution (80 propylene glycol:20 polyethylene glycol 400, w:w) was added and the compound was mixed completely prior to dosing. A control group received the dosing vehicle alone. The animals were dosed once on Day 1 (am), twice on Day 2 (am and pm) and once on the morning of Day 3. Three hours after the last dose animals were euthanized using CO2. Livers were perfused with a 0.25M sucrose solution, excised, and frozen. Livers were thawed and resuspended in buffer (2 mL/g, 0.1M Phosphate, pH 7.4, 1.0 mM glutathione, 0.5 mM EDTA, 20 μM leupeptin, 60 μM benzamidine, and 0.25M sucrose). The samples were homogenized and post nuclear microsomes were obtained by centrifugation: 1.000× g for 5 min. and the resulting supernatant, 100,000× g for 1 hr. Microsomes were resuspended in phosphate buffer to approximately 25 mg/mL and frozen at -70° C. until assayed for ACAT activity.
ACAT assays contained in a final volume of 200 μl:100 ug microsomal protein, 75 μM ^14 C-oleoyl-CoA (10,000 dpm/nmol), 0.75 mg bovine serum albumin, 0.1M phosphate buffer, pH 7.4, and 1 mM glutathione. All components, except the oleoyl-CoA, were preincubated for 15 min at 37° C. prior to the initiation of the reaction by the addition of oleoyl-CoA. The assay was terminated after 10 min and ACAT activity determined as described in section A above. The average specific activity of ACAT in the vehicle control group was 661 +/- 64 pmol/min/mg (SEM). The data (% inhibition) are expressed as 100 minus the % ACAT activity in livers from dosed animals versus those from a vehicle control group.

For orientation: pIC50 means the negative decadic logarithm of the IC50, by convention in mol/L. Read a high pIC50 as a low IC50. `CCCC1C=CC(CCC)C(C(=O)Nc2c(SC)cc(C)nc2SC)S1` (centres unmarked) [Example 140] showed a pIC50 in assay [1] of over 5.70. Further, the “Inhibition of ACAT, Ex Vivo Assay (% inhibition)” value in assay [2] is under 10%.
